System: CFUs
Experiment: Reduction in CFUs with additive-containing supercritical carbon dioxide sterilant fluid
Type: cell-based
Details: additive in supercritical carbon dioxide under sterilization temperature and pressure conditions
Description: It has been observed that 6-log reductions in CFUs may be achieved in accordance with the present invention by subjecting materials to be sterilized under sterilization temperature and pressure conditions using an additive-containing supercritical carbon dioxide as a sterilant fluid, wherein the additive is carbonic anhydrase. Further, this process is enhanced where the sterilant fluid is agitated during the sterilization process.

Q: For carbonic anhydrase, which “reductions in CFUs” value is on record?
A: 6 log

— patent US7771652B2, “Combined use of an alkaline earth metal compound and a sterilizing agent to maintain osteoinduction properties of a demineralized bone matrix” (Novasterilis, Inc., priority 2008, dated 2010)
